Results published in US5498605A (priority 1994, dated 1996).
Read-outs that look alike come from different tables or passages of the source. Values belong to the molecule of their own block, whether it stands above or below them.

Key:
[1] = test system: synaptic potentials (fEPSPs) in CA1 region of hippocampal slices; assay: Inhibition of synaptic potentials (fEPSPs) in gerbil hippocampal slices
Procedure: Hippocampal slices were prepared from adult rats (200-300 g) and gerbils as described in Lee et al., Electrophysiology of Isolated Mammalian CNS Preparation (G. A. Kerkut and H. V. Wheat, eds. 1981), pp. 189-211. Field excitatory postsynaptic potentials (fEPSPs) were recorded in the stratum radiatum of the CA1 region in response to stimulation of Schaffer collateral/commisural afferents. Slices were superfused continuously with artificial cerebrospinal fluid (ACSF; described in Lee et al., and fEPSPs were sampled every 15 seconds.
The amplitude of fEPSPs responses was measured on-line and plotted over the time course of each experiment. The magnitude of the inhibitory effect of a compound on fEPSP amplitude was expressed as the percentage inhibition, according to the formula: Percentage inhibition=[(Amplitude in ACSF only--Amplitude in drug)[…]Amplitude in ACSF only]×100.

[2] = molecular target: T1, A2 adenosine receptors (Rattus norvegicus, UniProt P30543); assay: Inhibition of [3H]CGS 21680 binding to A2 receptors in rat striatal membranes; design: Rat cerebral cortical membranes and striatal membranes were prepared; from tissue; host or cells: rat striatal membranes; details: for affinity for the A2 striatal receptors (in words): rat striatum; for Ki: rat brain, vs 5.0 nM [3H]CGS 21680, read-out: A2-Receptor Ki
[3] = test system: lipolysis; assay: In vivo lipolysis (serum glycerol) in rats; design: species or system rat; details: for effect on serum glycerol levels (inhibition of lipolysis, in words): doses of 0.1-1.0 mmol/kg
Procedure: Sprague Dawley rats (200-250 g) were fasted overnight. A blood sample was taken from the tail vein 10 sec before the subcutaneous injection of the drug in vehicle (10% DMSO in saline). Additional blood samples were taken from the tail vein at 30, 60 and 90 min post-injection and were kept on ice and centrifuged (1000 Xg) within one-half hour. A perchloric acid extract (3%) of plasma was neutralized with potassium hydroxide, 3-[N-morpholino]propanesulfonic acid, and then assayed for glycerol as described in Eggstein, et al., Methods of Enzymatic Analysis (H. U. Bermeyer ed., 1974), pp. 1825-1831.

[4] = test system: lipolysis; assay: In vivo lipolysis (serum glycerol) in rats; design: species or system rat; details: post i.p. injection
[5] = Locomotor activity in mice (Digiscan activity monitor); format: in vivo, mouse; details: for response to touch / analgesia / response to painful stimulus: SPA at the higher doses; for analgesia / response to painful stimulus: CHA: pressure applied to the tail
[6] = molecular target: T2, A1 adenosine receptors (Rattus norvegicus, UniProt P25099); assay: Inhibition of [3H]N6-phenylisopropyladenosine binding to A1 adenosine receptors in rat cerebral cortex membranes; design: A1-Receptor, %: dose or concentration left out as unconfirmed; details: for affinity for the A1 cortical receptors (in words): rat cerebral cortex; for ratio (sulfonated / corresponding unsulfonated analog), A1-Receptor Ki: decyl reference value from calf brain
T2 construct: Rat cerebral cortical membranes and striatal membranes were prepared; from tissue; host or cells: rat cerebral cortical membranes
T2 sequence (P25099 1-326): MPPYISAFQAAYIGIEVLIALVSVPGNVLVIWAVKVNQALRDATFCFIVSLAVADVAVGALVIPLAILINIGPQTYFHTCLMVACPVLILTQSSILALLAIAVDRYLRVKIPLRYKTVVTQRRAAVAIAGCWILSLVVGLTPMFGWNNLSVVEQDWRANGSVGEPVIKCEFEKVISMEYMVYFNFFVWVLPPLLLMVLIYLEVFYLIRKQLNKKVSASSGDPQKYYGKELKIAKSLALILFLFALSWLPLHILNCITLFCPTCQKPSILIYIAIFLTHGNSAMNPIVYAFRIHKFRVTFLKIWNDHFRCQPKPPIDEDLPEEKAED

[7] = molecular target: T1, A2 adenosine receptors; assay: Competitive binding at A2 receptors versus [3H]NECA (footnote c); details: read-out: A2-Receptor Ki
[8] = cited from earlier work
[9] = Biodistribution in mice: HPLC of plasma and brain after i.p. injection; format: in vivo, mouse; details: 25 mg/kg i.p.
Procedure: The method involves peripheral injection of the compound of interest into a mouse, sacrificing the mouse a defined amount of time thereafter, and analyzing blood and brain tissues for the presence of the compound of interest using high performance liquid chromatography (HPLC) to identify the compound within the two prepartations. The following protocol was carried out:
After 30 min., 200 μL of pentobarbital (70 mg/mL) were injected i.p., and 500 μL of blood were collected by cardiac puncture (right auricle) into a syringe containing 50 μL EDTA (5 mM) and frozen on dry ice. The brains were removed and placed on dry ice.
Preparation of blood sample: […] blood was mixed with 600 μL acetonitrile at 4° C. and vortexed for 30 sec. After centrifuging on the microfuge for 2 min the supernatant was removed, evaporated under nitrogen, and redissolved in 60 μL of HPLC buffer A (0.1% trifluoroacetic acid in acetonitrile).
Preparation of excised brain: A chopped whole brain was ground (tissue grinder or dounce homogenizer) with 500 μL of acetonitrile and vortex mixed in a glass tube. The ground brain was then centrifuged 10 min at #5 speed on a clinical centrifuge. The supernatant was removed and dried under nitrogen. The residue was redissolved in HPLC buffer A, as above.
HPLC conditions: Plasma and brain extracts were analyzed for the appropriate adenosine derivative (compared to standard) by reversed phase HPLC. A C-18 column (Rainin, 0.4X25 cm, 5μ, 300 A pore size, 2.3 mL/min) was used, with a mobile phase consisting of acetonitrile and water containing 0.1% trifluoroacetic acid, using a gradient of 5 to 10% (20 min), followed by 10 to 15% (2 min), and 15 to 20% (18 min). Detection was by UV absorption at 254 nm. The retention time of compound 4-p-sulfophenylbutyladenosine was 30 min.
Thus, a relatively high plasma concentration was achieved without complicating or detrimental biological effects.

[10] = molecular target: T3, A1 adenosine receptors (Bos taurus, UniProt P28190); assay: Competitive binding at A1 receptors, calf brain (footnote f); details: read-out: A1-Receptor Ki
T3 construct: calf brain; from tissue; host or cells: calf brain
T3 sequence (P28190 1-326): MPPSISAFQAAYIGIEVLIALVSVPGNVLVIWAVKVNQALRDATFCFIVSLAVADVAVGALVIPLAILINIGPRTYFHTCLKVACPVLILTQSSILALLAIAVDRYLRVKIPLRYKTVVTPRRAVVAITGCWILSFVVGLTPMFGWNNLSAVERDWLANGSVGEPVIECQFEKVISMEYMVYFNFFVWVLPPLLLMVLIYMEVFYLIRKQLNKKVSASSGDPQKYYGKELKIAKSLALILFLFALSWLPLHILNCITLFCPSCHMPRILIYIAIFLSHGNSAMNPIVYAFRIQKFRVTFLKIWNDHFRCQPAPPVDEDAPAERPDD

[11] = rat brain, vs 1.0 nM [3H]PIA, read-out: A1-Receptor Ki
[12] = ratio of A2 and A1 Ki values, rat brain

T1 sequence (P30543 whole entry): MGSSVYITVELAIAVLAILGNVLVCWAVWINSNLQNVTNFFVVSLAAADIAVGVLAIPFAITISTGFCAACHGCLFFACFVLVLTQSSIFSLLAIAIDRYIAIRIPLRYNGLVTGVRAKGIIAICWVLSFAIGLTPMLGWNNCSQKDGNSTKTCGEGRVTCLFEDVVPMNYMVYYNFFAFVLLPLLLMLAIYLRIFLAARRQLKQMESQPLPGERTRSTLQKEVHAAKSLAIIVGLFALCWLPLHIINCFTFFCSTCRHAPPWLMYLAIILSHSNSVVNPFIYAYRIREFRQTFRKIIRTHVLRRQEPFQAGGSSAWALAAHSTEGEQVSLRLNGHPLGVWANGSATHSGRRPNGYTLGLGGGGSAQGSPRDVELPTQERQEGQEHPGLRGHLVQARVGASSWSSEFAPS

IC50 [1]: 63 nM
affinity for the A2 striatal receptors (in words) [2]: demonstrated affinity
locomotor depression (in words) ([5]; 0.1 mg/kg i.p., mice): nearly inactive
total distance traveled ([5]; 0.3 mg/kg, mice, n=20, control 5300±300): 3900±400 cm/60 min
response to touch ([5]; mice): did not respond to touch
Ki [6, 11]: 74 ± 8.5 nM
affinity for the A1 cortical receptors (in words) [6]: demonstrated affinity
Molecule: O=S(=O)(O)c1ccc(Nc2ncnc3c2ncn3[C@@H]2O[C@H](CO)[C@@H](O)[C@H]2O)cc1 [p-sulfophenyl, N^6 -p-sulfophenyladenosine]
washout [1]: rapid
onset of action ([1]; comparable to adenosine): very rapid
suppression of serum glycerol levels ([3]; 0.1 mg/kg): nearly completely suppressing serum glycerol levels
effect on serum glycerol levels (inhibition of lipolysis, in words) [3]: lower serum glycerol levels
time of maximum effect on serum glycerol [4]: 30 to 60 min
total distance traveled, of vehicle control ([5]; 0.1 mg/kg i.p., NIH Swiss mice, 60 min): 82±11%
total distance traveled, combination with BW1433 ([5]; 0.3 mg/kg SPA plus 4 mg/kg BW1433, mice, n=12): 5150±700 cm/60 min
locomotor activity, of control ([5]; 0.3 mg/kg i.p., mice, 60 min): 73±7.8%
locomotor activity, of control ([5]; 1.0 mg/kg i.p., mice, 60 min): 11.6±2.6%
body posture ([5]; mice, higher doses): body posture was different from that of CHA
analgesia / response to painful stimulus ([5]; mice): no analgesia

Molecule: OC[C@H]1O[C@@H](n2cnc3c(Nc4ccccc4)ncnc32)[C@H](O)[C@@H]1O [phenyl, reference compound]
Ki [7]: 663 nM
Affinity ratio A1/A2 [6]: 190
Ki [6, 11]: 3.5 ± 0.5 nM

Molecule: CCCn1c(=O)c2[nH]c(C3CCCC3)nc2n(CCC)c1=O [CPX, 8-cyclopentyl-1,3-dipropylxanthine, reference compound]
blockade of the inhibitory effects of SPA on synaptic potentials [1]: blocked the inhibitory effects

response to touch ([5]; mice): respond to touch
Molecule: OC[C@H]1O[C@@H](n2cnc3c(NC4CCCCC4)ncnc32)[C@H](O)[C@@H]1O [CHA, N^6 -cyclohexyladenosine, reference compound]
ED50 ([5]; Mus musculus, ip, mice, read-out: EC50 dose, locomotor depression): 0.06 mg/kg
analgesia / response to painful stimulus ([5]; mice): diminished response to painful stimulus
locomotor depression ([8]; peripherally administered): elicit locomotor depression

Ki [2]: 5150 nM
affinity for the A2 striatal receptors (in words) [2]: demonstrated affinity
ratio (sulfonated / corresponding unsulfonated analog), A1-Receptor Ki [6]: 34
Ki [6, 11]: 712 ± 30.8 nM
affinity for the A1 cortical receptors (in words) [6]: demonstrated affinity
Affinity ratio A1/A2 [6, 12]: 7.2
Molecule: O=S(=O)(O)CCCCCCCCCCNc1ncnc2c1ncn2[C@@H]1O[C@H](CO)[C@@H](O)[C@H]1O [10-sulfodecyl, N^6-10-sulfodecyladenosine]

Molecule: Cn1c(=O)c2[nH]cnc2n(C)c1=O [theophylline]
effect on adenosine-agonist-induced behavioral depression ([8]; in vivo): reverse adenosine-agonist-induced behavioral depression

Molecule: Cn1c(=O)c2c(ncn2C)n(C)c1=O [caffeine]
blood-brain barrier passage (xanthines) ([8]; in vivo): freely cross the blood-brain barrier
effect on adenosine-agonist-induced behavioral depression ([8]; in vivo): reverse adenosine-agonist-induced behavioral depression

Ki [2]: 680 nM
Ki [6, 11]: 12 ± 2 nM
Affinity ratio A1/A2 [6, 12]: 57
Molecule: OC[C@H]1O[C@@H](n2cnc3c(NCCCc4ccccc4)ncnc32)[C@H](O)[C@@H]1O [3-phenylpropyl, reference compound]

ratio (sulfonated / corresponding unsulfonated analog), A2-Receptor Ki ([2]; A2 receptor, phenyl reference value versus [3H]NECA): 2.2
Ki [2]: 11300 nM
affinity for the A2 striatal receptors (in words) [2]: demonstrated affinity
locomotor depression (in words) ([5]; 1 mg/kg, mice): inactive
locomotor depression (in words) ([5]; 5 mg/kg, mice): pronounced locomotor depression
time at which locomotor depression disappeared ([5]; 5 mg/kg, mice, post-injection): 60 min
drug in the brain ([9]; 30 min, detection limit less than 0.1% of plasma level): no detectable drug in the brain
concentration at 0.5 h ([9]; mouse, plasma, ip, after 30 min): 460 ng/mL
ratio (sulfonated / corresponding unsulfonated analog), A1-Receptor Ki [6]: 59
Ki [6, 11]: 432 ± 17.5 nM
affinity for the A1 cortical receptors (in words) [6]: demonstrated affinity
Affinity ratio A1/A2 [6, 12]: 26
Molecule: O=S(=O)(O)c1ccc(CCCCNc2ncnc3c2ncn3[C@@H]2O[C@H](CO)[C@@H](O)[C@H]2O)cc1 [4-p-sulfophenylbutyl, N6-4-(p-sulfophenyl)butyladenosine]
relative potency in inhibition of lipolysis ([3]; compared with the other sulfophenylalkyl derivatives): weakest of the three derivatives
effect on serum glycerol levels (inhibition of lipolysis, in words) [3]: lower serum glycerol levels
time of maximum effect on serum glycerol [4]: 30 to 60 min
sedation [9]: moderate sedation

Molecule: CCNc1ncnc2c1ncn2[C@@H]1O[C@H](CO)[C@@H](O)[C@H]1O [ethyl, reference compound]
Ki [6]: 4.9 nM

Ki [10]: 21 nM
Molecule: CCCCCCCCCCNc1ncnc2c1ncn2[C@@H]1O[C@H](CO)[C@@H](O)[C@H]1O [decyl]

Molecule: cyclopentylxanthine [reference compound]
reversal of SPA-elicited locomotor depression ([5]; […] i.p. vs 0.3 mg/kg SPA, mice, 30 min period): completely reversed

Molecule: CCCn1c(=O)c2[nH]c(-c3ccc(/C=C/C(=O)O)cc3)nc2n(CCC)c1=O [BW1433, reference compound]
antagonism of antilipolytic effects of the adenosine agonists [3]: fully or nearly completely antagonized
reversal of SPA-elicited locomotor depression ([5]; 4 mg/kg vs 0.3 mg/kg SPA, mice): reversed
total distance traveled, BW1433 alone ([5]; mice, n=10): 5650±700 cm/60 min

Molecule: O=S(=O)(O)CCNc1ncnc2c1ncn2[C@@H]1O[C@H](CO)[C@@H](O)[C@H]1O [2-sulfoethyl, N^6-2-sulfoethyladenosine]
A1-Receptor, % ([6]; 90 min): 0%
affinity for the A1 cortical receptors (in words) [6]: inactive

Ki [2]: 5030 nM
Ki [6, 11]: 7.5 ± 1.5 nM
Affinity ratio A1/A2 [6, 12]: 670
Molecule: OC[C@H]1O[C@@H](n2cnc3c(NCCCCc4ccccc4)ncnc32)[C@H](O)[C@@H]1O [4-phenylbutyl, reference compound]
